Measurements published in the supplement of paper PMC10307832.

What follows are cell lines tested with O=c1ncccn1[C@@H]1O[C@H](CO)[C@@H](O)[C@H]1O [Zebularine] + C[C@]1(O)C[C@@H](c2nc(-c3ccc4ccc(-c5ccccc5)nc4c3)c3c(N)nccn32)C1 [Linsitinib] (partner 1 µM) (assay: relative viability (nuclei count vs DMSO), 5 days (fraction); higher = more cells survive). Conditions: first compound 100 µM.
In short: (§1)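 Lung cancer cell lines were pin-tool dosed in 1536-well plates on the day after seeding, with either a lone drug or a fixed anchor-drug dose plus five library-drug doses (not always all listed) in √10 steps. Nuclei were counted on 4× images after 5 days. Relative viability is the ratio of treated-well to vehicle-well nuclei counts, with each value a median of duplicate plates.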

Cell Line	relative viability
EPLC-272H	0.746

What follows are cell lines tested with O=c1ncccn1[C@@H]1O[C@H](CO)[C@@H](O)[C@H]1O [Zebularine] + CCNC(=O)c1noc(-c2cc(C(C)C)c(O)cc2O)c1-c1ccc(CN2CCOCC2)cc1 [Luminespib] (partner 0.01 µM) in the same assay as above. Conditions: first compound 1 µM.
In short: as §1

Cell Line	relative viability
LOU-NH91	0.332
NCI-H2405	0.705
HOP-62	0.991
HCC-44	1.17
LU99A	0.221
BEN	0.448
HARA	0.86
NCI-H322M	0.905
LCLC-97TM1	0.806
NCI-H2009	1.09
A-427	1.01
NCI-H441	0.301
NCI-H661	1.02
NCI-H1734	0.197
NCI-H460	0.0314
NCI-H2347	0.504
SK-LU-1	0.231
NCI-H1395	0.564
201T	1.09
NCI-H1915	0.887
HCC-827	0.756
LXF-289	0.729
NCI-H23	0.217
NCI-H647	0.242
CAL-12T	0.49
NCI-H1651	0.986
EPLC-272H	0.247

Same assay, conditions: first compound 3.162 µM

Cell Line	relative viability
LOU-NH91	0.33
NCI-H2405	0.779
HOP-62	0.906
HCC-44	1.15
LU99A	0.269
BEN	0.172
NCI-H322M	0.992
LCLC-97TM1	0.777
NCI-H2009	1.04
A-427	0.856
NCI-H441	0.266
NCI-H661	0.948
NCI-H1734	0.171
NCI-H460	0.0246
NCI-H2347	0.418
SK-LU-1	0.187
NCI-H1395	0.666
201T	1.1
NCI-H1915	0.818
HCC-827	0.909
LXF-289	0.75
NCI-H23	0.221
NCI-H647	0.173
CAL-12T	0.717
NCI-H1651	0.831
EPLC-272H	0.238

Same assay, conditions: first compound 10 µM

Cell Line	relative viability
LOU-NH91	0.479
NCI-H2405	0.651
HOP-62	0.263
HCC-44	0.746
LU99A	0.166
BEN	0.235
NCI-H322M	0.707
LCLC-97TM1	0.427
NCI-H2009	0.793
A-427	0.53
NCI-H441	0.298
NCI-H661	0.686
NCI-H1734	0.185
NCI-H460	0.0322
NCI-H2347	0.293
SK-LU-1	0.22
NCI-H1395	0.456
201T	0.894
HCC-827	0.353
LXF-289	0.444
NCI-H23	0.21
NCI-H647	0.141
CAL-12T	0.244
NCI-H1651	0.688
EPLC-272H	0.237

Same assay, conditions: first compound 31.62 µM

Cell Line	relative viability
LOU-NH91	0.298
NCI-H2405	0.797
HOP-62	0.296
HCC-44	0.374
LU99A	0.188
BEN	0.262
HARA	0.833
NCI-H322M	0.703
LCLC-97TM1	0.241
NCI-H2009	0.859
A-427	0.383
NCI-H441	0.244
NCI-H661	1.01
NCI-H1734	0.217
NCI-H460	0.0331
NCI-H2347	0.213
SK-LU-1	0.229
NCI-H1395	0.536
201T	1.04
NCI-H1915	0.772
HCC-827	0.582
LXF-289	0.382
NCI-H23	0.211
NCI-H647	0.0957
CAL-12T	0.355
NCI-H1651	0.738
EPLC-272H	0.406

Same assay, conditions: first compound 100 µM

Cell Line	relative viability
LOU-NH91	0.3
NCI-H2405	0.498
HOP-62	0.178
HCC-44	0.388
LU99A	0.146
BEN	0.178
HARA	0.445
NCI-H322M	0.662
LCLC-97TM1	0.21
NCI-H2009	0.3
A-427	0.261
NCI-H441	0.225
NCI-H661	0.895
NCI-H1734	0.178
NCI-H460	0.0289
NCI-H2347	0.28
SK-LU-1	0.183
NCI-H1395	0.372
201T	0.724
NCI-H1915	0.322
HCC-827	0.257
LXF-289	0.202
NCI-H23	0.199
NCI-H647	0.0958
CAL-12T	0.582
NCI-H1651	0.519
EPLC-272H	0.154
